Assay results as given in publication PMC7217877, “N-AS-triggered SPMs are direct regulators of microglia in a model of Alzheimer’s disease” (Nature Communications, 2020).
Substitutions are numbered along the chain they refer to. Several values for one entry are separate records, joined by “and”; a condition that tells them apart may be missing. Identical values can stand only once.

What was measured:
COX2 S565A = biological target: T1, COX2 S565A (Homo sapiens, UniProt P35354, S565A); test: filter binding assay of [14C] N-AS to COX2; settings: 0.2 uM, replicates
T1 construct: His (N); made in house
T1 sequence (P35354 18-604 S565A): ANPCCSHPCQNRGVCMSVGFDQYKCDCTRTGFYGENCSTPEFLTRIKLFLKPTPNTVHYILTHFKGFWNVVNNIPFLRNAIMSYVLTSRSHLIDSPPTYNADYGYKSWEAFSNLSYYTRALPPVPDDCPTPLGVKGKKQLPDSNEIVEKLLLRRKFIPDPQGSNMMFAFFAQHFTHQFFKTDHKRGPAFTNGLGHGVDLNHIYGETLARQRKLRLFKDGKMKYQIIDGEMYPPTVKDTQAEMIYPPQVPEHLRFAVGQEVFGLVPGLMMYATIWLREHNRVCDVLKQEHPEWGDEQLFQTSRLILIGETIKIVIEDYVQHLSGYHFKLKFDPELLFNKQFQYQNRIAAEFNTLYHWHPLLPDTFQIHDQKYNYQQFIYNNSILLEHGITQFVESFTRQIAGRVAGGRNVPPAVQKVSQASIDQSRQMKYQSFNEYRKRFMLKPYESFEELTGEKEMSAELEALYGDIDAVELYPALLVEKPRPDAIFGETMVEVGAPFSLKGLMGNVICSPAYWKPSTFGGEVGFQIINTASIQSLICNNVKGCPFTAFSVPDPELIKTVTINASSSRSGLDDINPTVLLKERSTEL

COX2 N181A = biological target: T2, COX2 N181A (Homo sapiens, UniProt P35354, N181A); test: filter binding assay of [14C] N-AS to COX2; settings: 0.2 uM, replicates
T2 construct: His (N); made in house
T2 sequence (P35354 18-604 N181A): T1 sequence (P35354 18-604 S565A) with N164A, A548S

tumors = test system: tumors; parameters: method as in PMID 27043542, PMID 24566153; settings: cited from earlier work
neuron = test: acetyl-CoA level in primary cells (assay kit); format: cell-based, C57BL/6 mice; settings: Ab 10mM, replicates
Experimental: To confirm the generation and roles of N-AS in neurons, cells from E18 C57BL/6 mice were prepared as previously described. Cortices were dissected and then dissociated followed by incubation in papain (Worthington) at 37 °C for 15 min. Neurons were plated on poly-L-lysine-coated coverslips with neuronal culture medium, serum-free Neurobasal medium (Gibco) containing 2% B27 supplements (Gibco), 1 mM Glutamax supplement (Gibco), and 100 U ml^−1 streptomycin/ 100 U ml^−1 penicillin (Gibco) at 37 °C in a humidified atmosphere of 5% CO2. […] Primary astrocyte cultures were prepared from C57BL/6 mice as described previously. In brief, after removal of the meninges, postnatal day 7 (P7) mouse brain tissues were minced and incubated in a rocking water bath at 37 °C for 30 min in the presence of 0.25% trypsin-EDTA (Sigma-Aldrich). Enzyme-digested dissociated cells were triturated with astrocyte-specific medium (DMEM/F12 containing 10% FBS and 1% penicillin-streptomycin) and centrifuged at 155×g for 8 min. The pellet was resuspended in astrocyte-specific medium and passed through a 40-μm cell strainer. […] The human microglia treated with Aβ 1–42 and/or zileuton was incubated with N-AS (2.5 μM, 2 h, Sigma-Aldrich, 01912), and were analyzed for the generation and roles of N-AS. […]

For `CCCCCCCCCCCCC/C=C/[C@@H](O)[C@H](CO)NC(C)=O` [N-AS, N-((2S,3R,E)-1,3-Dihydroxyoctadec-4-en-2-yl)acetamide], the “binding velocity (Vbinding)” value (COX2 S565A) is listed as 0.187 nM/min and 0.075 nM/min and 0.292 nM/min, the “binding velocity (Vbinding)” value (COX2 N181A) is listed as 0.489 nM/min and 0.461 nM/min and 0.240 nM/min and the apoptosis of tumors (tumors) is listed as “induce apoptosis of tumors”.

For “Ab: Aβ 1–42 (Invitrogen, 03112) used to induce an AD environment in cells”, the “acetyl-CoA (Fig 3e)” value (neuron) was 0.1397 and 0.4178 and 0.62 and 0.7945 and 0.1176 and 0.7145.
